According to US5369111A, “Modulator agent and use thereof” (University of Vermont, priority 1992, dated 1994):

Legend:
RCC-5 cells = assay: Modulation of intrinsic drug resistance, RCC-5; assay type: cell-based, rat; details: VCR
Procedure: Mid-exponential cultures were used for all assays. The RCC-2 and RCC-5 cell lines were seeded into 24-well plates at 2×10^4 cells/well and allowed to attach to the substratum for 16-18 h prior to treatment. The S180 cell lines were seeded into culture tubes at 1×10^5 cells/ml and treated immediately. Cytotoxicity was determined by quantitation of population growth after 72 h incubation by electronic particle counter (Coulter Electronics, Hialeah, Fla.). The human tumor cell lines were used in a clonogenic assay for cytotoxicity. Cells were seeded at 300 cells/dish, incubated overnight and then treated. Colonies were scored 7-11 days later. In all assays of analog modulation of drug sensitivity, the analog was added minutes prior to the addition of cytotoxic drug.
*calculated as the IC50 of the drug alone divided by the IC50 o
the [drug modulator] combination. Data are presented from tretments with
the nontoxic concentration limit of each analog as noted.
FIG. 9 represents the modulation of VCR sensitivity in the RCC-12 (A) and RCC-5 (B) cell lines by the analog C-20'-deoxy deethyl vincovaline. Population growth was determined after 72 hours incubation in the absence (o), or presence of 10 μM (o), 20 μM (Δ), or 50 μM of analog. Data presented are from a typical experiment.

[1] = Viability (MTT test) of P388 S cells; assay type: cell-based; details: mouse; sensitive cells P388 S, 24 h and 48 h; read-out: concentrations up to which no cytotoxicity is seen
Source text: (§1) The sensitization of C-20'-deoxy C-20'-deethyl vincovaline (D-DEV) has been tested on sensitive and resistants P388 cell lines originating from mouse lympnoma.
(§2) The resistance to anticancerous drug has been induced on DBA2 mouses bearing P388 cells ascites and maintained by treatment with adryamycin.
(§3) This study has been carried out at least in triplicate.

S180 cells, parental = assay: Modulation of intrinsic drug resistance, parental S180; assay type: cell-based, murine; details: S180 parental
Summary of the method: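 Parental S180 cells at 1×10^5 cells/ml treated with modulator (10^-6 M up to non-toxic IC10-20 or solubility limit) added minutes before VBL, VCR or ADM; growth counted electronically after 72 h. Sensitivity index = drug IC50 alone / drug IC50 with modulator; duplicates from two experiments.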

[2] = Viability (MTT test) of P388 R cells; assay type: cell-based, mouse; details: mouse; resistant cells P388 R, 24 h and 48 h; read-out: concentrations up to which no cytotoxicity is seen
Source text: as §1, §2, §3

S180/A10 cells = assay: Modulator potency in MDR cells: reversal of acquired resistance, S180/A10; assay type: cell-based, murine
Summary of the method: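 S180/A3 and S180/A10 MDR cells at 1×10^5 cells/ml exposed to a modulator concentration range, added minutes before VBL, VCR or ADM at parental-cell IC70s. Growth counted by electronic particle counter after 72 h. Value is the minimal modulator concentration restoring 70% growth inhibition; mean of 2-3 experiments.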

[3] = system: S180 MDR cell strains A3 and A10; assay: Modulation of acquired drug resistance in the S180 MDR cell strains A3 and A10; assay type: cell-based, murine; details: VBL, VCR and ADM
Summary of the method: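 MDR S180 lines in tubes (1×10^5 cells/ml) exposed to graded modulator added minutes before ADM, VBL or VCR at parental IC70s (2.0×10^-7 M ADM, 1.5×10^-8 M VBL, 4.5×10^-8 M VCR). Growth counted electronically at 72 h. Reversing concentration = minimum modulator giving 70% inhibition; duplicates, two experiments.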

P388 R cells = assay: Sensitization of P388 R cells to antitumorous agents; assay type: cell-based, mouse
Procedure: as §1, §2
The P388 R cells are incubated at 37° C. during 24 hours with constant subtoxic concentrations of antitumoral drugs and increasing concentrations of modulators from 1 to 100 μM.

Q: For CC[C@]12C=CCN3CC[C@@]4(c5cc([C@]6(C(=O)OC)C[C@H]7CCCN(CCc8c6[nH]c6ccccc86)C7)c(OC)cc5N(C)[C@H]4[C@@](O)(C(=O)OC)[C@@H]1OC(C)=O)[C@@H]32 [analog n° 352, C-20'-deoxy-20'-deethyl-C-14', 16'-epi-VBL], which “maximum sensitization to VCR” value (RCC-5 cells; RCC-5) is on record?
A: 28 fold

Q: What about the “concentration overcoming the greater intrinsic resistance of RCC-5 to VCR” value (RCC-5 cells; RCC-5 compared to RCC-2) of the same molecule?
A: 10 to 20 µM

Q: What about the MNTC [1] of the same molecule?
A: ≥ 25 µM

Q: What about the “maximum degree of sensitization to ADM” value (S180 cells, parental; ADM) of the same molecule?
A: 5.5 fold

Q: What about the “maximum degree of sensitization to VBL and VCR” value (S180 cells, parental; VBL and VCR) of the same molecule?
A: 2.3-2.7 fold

Q: What about the MNTC [2] of the same molecule?
A: ≥ 100 µM

Q: And the “reversal of high level ADM resistance (in words)” value (S180/A10 cells; A10 cells, 90 fold ADM resistance)?
A: can reverse high level (90-fold) ADM resistance in MDR cells

Q: And the “reversal of high level ADM resistance” value (S180/A10 cells; ADM, 90-fold resistance, A10)?
A: 80%

Q: What about the “range of resistance levels over which parental sensitivity was restored” value [3] of the same molecule?
A: 3-17 fold

Q: What about the “percentage of cellular survival” value (P388 R cells; modulator 30 μM, ADM 1.72 μM, 1440 min) of the same molecule?
A: 50%

Q: What about the “modulator effect on P388 R cells with ADM (in words)” value (P388 R cells; modulator 100 μM, ADM 0.17 μM) of the same molecule?
A: no effect
